Consider two compounds from PMC8885417, “Pharmacological targeting of MTHFD2 suppresses acute myeloid leukemia by inducing thymidine depletion and replication stress” (Nature Cancer, 2022).

Each structure is given as a SMILES string.

The target in one test is T1, MTHFD1-(DC) (Homo sapiens, UniProt P11586).
T1 construct: dehydrogenase/cyclohydrolase (DC) domain
Kind of test: biochemical activity assay.

The target of the next test is MTHFD2L (Homo sapiens, UniProt Q9H903). Kind of test: biochemical activity assay.
MTHFD2L, sequence (Q9H903 whole entry): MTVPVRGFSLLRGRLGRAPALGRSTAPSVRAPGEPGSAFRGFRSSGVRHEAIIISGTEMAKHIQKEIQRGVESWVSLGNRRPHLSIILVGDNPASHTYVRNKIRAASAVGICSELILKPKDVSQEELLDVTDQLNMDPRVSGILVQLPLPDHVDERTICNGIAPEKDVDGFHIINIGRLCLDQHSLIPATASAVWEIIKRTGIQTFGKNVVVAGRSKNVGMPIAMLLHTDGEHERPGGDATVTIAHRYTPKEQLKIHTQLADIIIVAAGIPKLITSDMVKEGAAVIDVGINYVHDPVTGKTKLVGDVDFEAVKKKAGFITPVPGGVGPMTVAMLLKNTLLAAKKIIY

T1 sequence (P11586 2-306 limits assumed): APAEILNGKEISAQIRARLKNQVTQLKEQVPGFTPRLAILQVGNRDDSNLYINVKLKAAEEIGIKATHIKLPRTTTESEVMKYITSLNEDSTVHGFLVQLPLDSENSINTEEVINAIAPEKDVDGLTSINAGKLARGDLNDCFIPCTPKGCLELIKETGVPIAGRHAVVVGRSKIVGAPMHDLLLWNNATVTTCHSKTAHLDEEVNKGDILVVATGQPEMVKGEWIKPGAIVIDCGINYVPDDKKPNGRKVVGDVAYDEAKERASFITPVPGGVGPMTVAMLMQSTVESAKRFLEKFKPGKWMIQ

By IC50 is commonly meant the concentration that gives 50% inhibition. Read a high IC50 as weaker potency in that assay. Consider `Nc1nc2c(c(=O)[nH]1)N1C(=O)N(c3ccc(C(=O)N[C@@H](CCC(=O)O)C(=O)O)cc3)CC1CN2` (some centres unmarked) [LY345899], for which 535 nM corresponded to half-maximal inhibition at MTHFD1-(DC) (IC50).
As for `Nc1nc(N)c(NC(=O)Nc2ccc(C(=O)N[C@@H](CCC(=O)O)C(=O)O)cc2)c(=O)[nH]1` [TH7299], the IC50 against MTHFD2L came out at 126 nM.
